Measurements taken from patent US8071568B2, “Nucleoside aryl phosphoramidates for the treatment of RNA-dependent RNA viral infection” (Merck Sharp & Dohme Corp., priority 2007, dated 2011).
Read-outs that look alike come from different tables or passages of the source.

Test system: Hepatitis C Virus RNA in cultured hepatoma (HuH-7) cells containing a subgenomic HCV Replicon
Experiment: Assay for inhibition of HCV RNA replication (replicon assay, in situ ribonuclease protection SPA)
Type: cell-based
[1] = Hepatitis C virus, Huh-7, read-out: Replicon Assay EC50
[2] = Hepatitis C virus, Huh-7, read-out: Replicon Assay EC50, first eluting diastereomer, HuH-7 subgenomic HCV replicon
[3] = Hepatitis C virus, Huh-7, read-out: Replicon Assay EC50, second eluting diastereomer, HuH-7 subgenomic HCV replicon
[4] = mixture of diastereomers tested, HuH-7 subgenomic HCV replicon, read-out: Replicon Assay EC50

Compound	EC50 [1]	EC50 (read-out: Replicon Assay EC50)	EC50 [2]	EC50 [3]	further results
CC(C)C(=O)OC[C@H](Cc1ccccc1)NP(=O)(OC[C@H]1O[C@@H](n2ccc(N)nc2=O)[C@](C)(O)[C@@H]1O)Oc1ccccc1 (single isomer, unassigned) [Example 11]	500 nM	900 nM			
CCC(CC)C(=O)OCCNP(=O)(OC[C@H]1O[C@@H](n2ccc(N)nc2=O)[C@](C)(O)[C@@H]1O)Oc1ccccc1 (single isomer, unassigned) [Example 20, 5′-O-[({2-[(2-ethylbutanoyl)oxy]ethyl}amino)(phenoxy)phosphoryl]-2′-C-methylcytidine]			2800 nM	600 nM	
CCCCC(COC(=O)C(C)(C)C)NP(=O)(OCC1OC(n2ccc(N)nc2=O)C2(C)OC(C)(C)OC12)Oc1ccccc1 [Example 15, cytidine, 5′-O-[[[(1S)-1-[(2,2-dimethyl-1-oxopropoxy)methyl]pentyl]amino]phenoxyphosphinyl]-2′-C-methyl-2′,3′-O-(1-methylethylidene)-]					EC50 [4]: > 10000 nM
C[C@@]1(O)[C@H](O)[C@@H](COP(=O)(NCCOC(=O)c2ccccc2)Oc2ccccc2)O[C@H]1n1ccc(N)nc1=O (single isomer, unassigned) [Example 16, cytidine, 5′-O-[[[2-(benzoyloxy)ethyl]amino]phenoxyphosphinyl]-2′-C-methyl-]			2200 nM	5000 nM	
C[C@@]1(O)[C@H](O)[C@@H](COP(=O)(NCCOC(=O)C2CCCCCC2)Oc2ccccc2)O[C@H]1n1ccc(N)nc1=O (single isomer, unassigned) [Example 21, 5′-O-[({2-[(cycloheptylcarbonyl)oxy]ethyl}amino)(phenoxy)phosphoryl]-2′-C-methylcytidine]			700 nM	1200 nM	
CCCC(=O)OC[C@H](C)NP(=O)(OC[C@H]1O[C@@H](n2ccc(N)nc2=O)[C@](C)(O)[C@@H]1O)Oc1ccccc1 (mixture of isomers) [Example 2, 5′-O-[{[(±)-2-(Butyryloxy)-1-methylethyl]-amino}-(phenoxy)-phosphoryl]-2′-C-methylcytidine]	2800 nM	4000 nM			
CC(C)C(=O)O[C@@H](C)CNP(=O)(OC[C@H]1O[C@@H](n2ccc(N)nc2=O)[C@](C)(O)[C@@H]1O)Oc1ccccc1 (single isomer, unassigned) [Example 12]	2200 nM	2400 nM			
CC(C)C(=O)O[C@@H]1CCN(P(=O)(OC[C@H]2O[C@@H](n3ccc(N)nc3=O)[C@](C)(O)[C@@H]2O)Oc2ccccc2)C1 (single isomer, unassigned) [Example 22]			> 5000 nM	> 5000 nM	
CC[C@H](C)[C@@H](COC(=O)C(C)(C)C)NP(=O)(OC[C@H]1O[C@@H](n2ccc(N)nc2=O)[C@](C)(O)[C@@H]1O)Oc1ccccc1 (single isomer, unassigned) [Example 6]	2000 nM	1800 nM			
CC(C)(C)C(=O)OC[C@H](Cc1ccccc1)NP(=O)(OC[C@H]1O[C@@H](n2ccc(N)nc2=O)[C@](C)(O)[C@@H]1O)Oc1ccccc1 (stereo partly drawn) [Example 8, 5′-O-[[[(1S)-2-[(2,-dimethyl-1-oxopropoxy)-1-(phenylmethyl)]-ethyl]amino]-(phenoxy)-phosphinyl]-2′-C-methylcytidine]					EC50 [4]: 1000 nM
C[C@@H](COC(=O)C(C)(C)C)NP(=O)(OC[C@H]1O[C@@H](n2ccc(N)nc2=O)[C@](C)(O)[C@@H]1O)Oc1ccccc1 (single isomer, unassigned) [Example 1]	1600 nM	900 nM			
CC1(C)O[C@@H]2[C@@H](COP(=O)(N[C@H](COC(=O)C(C)(C)C)Cc3ccccc3)Oc3ccccc3)O[C@@H](n3ccc(N)nc3=O)[C@]2(C)O1 (stereo partly drawn) [Example 14, cytidine, 5′-O-[[[(1S)-2-(2,2-dimethyl-1-oxopropoxy)-1-(phenylmethyl)ethyl]amino]phenoxyphosphinyl]-2′-C-methyl-2′,3′-O-(1-methylethylidene)-]					EC50 (first eluting diastereomer, HuH-7 subgenomic HCV replicon, read-out: Replicon Assay EC50): > 5000 nM; EC50 (second eluting diastereomer, HuH-7 subgenomic HCV replicon, read-out: Replicon Assay EC50): > 5000 nM
